In assay [1] the test system is Klebsiella pneumoniae ATCC 10031. In words: Antibacterial activity, agar dilution method. The conditions noted are these: medium pH 7.0. Format: cell-based.
Protocol: (§1) The antibacterial activity was determined by the agar dilution method using a medium (pH 7.0) which comprises 3 g/l Bacto-tryptone (Difco Laboratories), 1 g/l meat extract, 1 g/l glucose and 16 g/l agar.
In a further assay the target is T1, PLC-γ1 (Bos taurus, UniProt P08487).
T1 construct: A sample of PLC-γ1 was prepared from bovine thymus according to the method described in Y. Honma et al; from tissue; host or cells: bovine thymus
T1 sequence (P08487 1-1291): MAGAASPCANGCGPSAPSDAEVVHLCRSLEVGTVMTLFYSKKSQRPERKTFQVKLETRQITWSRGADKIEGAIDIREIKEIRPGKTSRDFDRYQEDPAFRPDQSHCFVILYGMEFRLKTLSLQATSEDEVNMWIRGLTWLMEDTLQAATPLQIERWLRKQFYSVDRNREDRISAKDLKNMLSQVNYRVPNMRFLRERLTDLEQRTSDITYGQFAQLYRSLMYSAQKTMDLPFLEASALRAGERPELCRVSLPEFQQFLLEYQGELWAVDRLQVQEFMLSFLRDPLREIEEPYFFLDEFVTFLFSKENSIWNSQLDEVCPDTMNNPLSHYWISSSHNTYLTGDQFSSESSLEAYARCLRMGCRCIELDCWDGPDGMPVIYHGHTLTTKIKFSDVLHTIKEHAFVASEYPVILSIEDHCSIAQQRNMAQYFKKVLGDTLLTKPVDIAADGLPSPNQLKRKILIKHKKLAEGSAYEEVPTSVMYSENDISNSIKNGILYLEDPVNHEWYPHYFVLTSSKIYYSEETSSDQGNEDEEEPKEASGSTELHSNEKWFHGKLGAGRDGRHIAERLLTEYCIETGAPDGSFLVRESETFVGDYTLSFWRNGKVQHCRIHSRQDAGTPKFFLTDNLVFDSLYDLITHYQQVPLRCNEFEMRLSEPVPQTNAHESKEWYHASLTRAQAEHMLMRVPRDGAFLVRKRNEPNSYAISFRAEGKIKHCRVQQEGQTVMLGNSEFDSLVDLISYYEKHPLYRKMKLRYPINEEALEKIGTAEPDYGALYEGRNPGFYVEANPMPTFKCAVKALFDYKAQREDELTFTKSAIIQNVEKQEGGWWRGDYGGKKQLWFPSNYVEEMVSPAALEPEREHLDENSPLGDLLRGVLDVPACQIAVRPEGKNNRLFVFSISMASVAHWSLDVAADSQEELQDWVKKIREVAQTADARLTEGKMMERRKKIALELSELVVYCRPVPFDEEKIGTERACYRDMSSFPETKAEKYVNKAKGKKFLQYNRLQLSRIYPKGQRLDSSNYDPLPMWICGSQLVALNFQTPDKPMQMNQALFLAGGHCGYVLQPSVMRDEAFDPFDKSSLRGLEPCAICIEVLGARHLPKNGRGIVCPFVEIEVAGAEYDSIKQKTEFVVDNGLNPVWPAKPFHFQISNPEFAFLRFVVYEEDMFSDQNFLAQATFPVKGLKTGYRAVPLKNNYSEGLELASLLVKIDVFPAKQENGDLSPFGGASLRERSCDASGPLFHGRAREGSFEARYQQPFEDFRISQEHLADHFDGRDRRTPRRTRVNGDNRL
As to the kind of experiment: PLC-inhibiting activity (release of inositol phosphate from [3H]PIP2). Format: biochemical. The conditions noted are these: Concentration 123 μM; PLC-γ1 from bovine thymus, 37° C., 10 minutes. The method, then: PLC-inhibiting activity A sample of PLC-γ1 was prepared from bovine thymus according to the method described in Y. Honma et al., Biochem. J., 269, 13 (1990). A solution having the composition shown in Table 2 below was prepared on ice and was heated to 37° C. to start reaction. After incubation for 10 minutes, 2 ml of a chloroform/methanol mixture (2:1, v/v) was added thereto to stop the reaction. The resulting inositol phosphate was extracted with 0.5 ml of 1N hydrochloric acid. The extract was separated into two liquid phases by centrifugation (2000×g, 3 minutes), and the amount of ^3 H contained in the supernatant (0.7 ml) was measured with a scintillation counter. […] (a) 2-(N-Morpholino)ethanesulfonic acid (b) The peptides and their concentrations in aqueous solutions provided for the test are shown in Table 3. […] The inhibition rate (X) was calculated according to the following equation: X (%)=(A-C)/(B-C)×100 where A is the obtained value of specific radioactivity, B is the value of specific radioactivity obtained when the same amount of water was added instead of the aqueous solution of the test peptide, and C is the value of specific radioactivity obtained when the same amount of water was added instead of the sample and the aqueous solution of the test peptide.

For assay [2], the system named is Bacillus subtilis No. 10707. In words: Antibacterial activity, agar dilution method. Format: cell-based. Particulars: medium pH 7.0.
Protocol: as §1
Another assay concerns KMS-4 cells. As to the kind of experiment: Cell growth-inhibiting activity (BrdU incorporation, cell growth detection kit). The assay is classed as cell-based. Particulars: Concentration 1 μM, culturing with peptide for 17 hours. The method, then:
Cell growth-inhibiting activity The cell growth-inhibiting activity was determined using a cell growth detection kit (Amersham) in the following manner. KMS-4 cells [M. Nanba et al, International Journal of Cancer, 32, 697 (1983)]were suspended in DMEM medium (Nissui Pharmaceutical Co., Ltd.) containing 10% fetal calf serum at a density of 1-2×10^4 cells/ml, and 1 ml of the cell suspension was put into each well of a 24-well plate (Corning Inc.). The cells were cultured in a CO2 incubator (37° C., 5% CO2) for 2 days. Then, the medium was replaced with a fresh DMEM medium containing 10% fetal calf serum, and the test peptide was added thereto, followed by culturing for 17 hours. […] The number of cells which incorporated BrdU and the total number of cells within one field of vision of a microscope (approximately 200 cells) were determined, and the proportion (%) of stained cells per field of vision was calculated. […] The cell growth-inhibiting activity was calculated in the following manner. That is, the cell growth inhibition rate was calculated according to the following equation: X (%)=(1-B/A)×100 where A is the growth activity when no peptide was added, and B is the growth activity when the test peptide was added.
(Incorporation of labelled thymidine or its analogues reports DNA synthesis.)

Assay [3] deals with Proteus vulgaris ATCC 6897. As to the kind of experiment: Antibacterial activity, agar dilution method. The assay is classed as cell-based. Particulars: medium pH 7.0. (In general: In agar dilution the substance is mixed into plates at graded concentrations.)
Protocol: as §1
The subject of assay [4] is Pseudomonas aeruginosa Bin H No. 1. In words: Antibacterial activity, agar dilution method. Format: cell-based. The conditions noted are these: medium pH 7.0.
Protocol: as §1

Values after ≈ are worked out from the molar mass of the structure shown. Square brackets hold non-standard residues; d marks the D form. Peptide text beside a SMILES is read from it. Aun = NCCCCCCCCCCC(=O)O

For `CSCC[C@H](NC(=O)[C@H](CCCCN)NC(=O)[C@H](CCCNC(=N)N)NC(=O)[C@H](Cc1ccc(O)cc1)NC(=O)[C@H](CC(C)C)NC(C)=O)C(=O)N[C@@H](CCCNC(=N)N)C(=O)N[C@@H](CC(C)C)C(=O)N[C@@H](CCCNC(=N)N)C(=O)N[C@@H](Cc1ccc(O)cc1)C(=O)N1CCC[C@H]1C(=O)N[C@H](C(=O)NCCCCCCCCCCC(N)=O)C(C)C` [Compound (I-6), Ac-Leu-Tyr-Arg-Lys-Met-Arg-Leu-Arg-Tyr-Pro-Val-Aud-NH2] (Ac-LYRKMRLRYPV[Aun]-NH2), in assay [1], the “MIC (μg/ml) KP” value came out at 43 µg/mL (≈ 25 µM).
Take “Ac-Leu-Tyr-Arg-Lys-Met-Arg-Leu-Arg-Tyr-Pro-Val-Abu-NH2 (Ac-LYRKMRLRYPVX-NH2; not fully specified (residue 12); printed as $CH_3CO$—Leu—Tyr—Arg—Lys—Met—Arg—Leu—Arg—Tyr—Pro—Val—NH—$(CH_2)_3CONH_2$) [Compound (I-1)]”: the “Inhibition rate (%)” value in the assay with PLC-γ1 turned out to be 85%. Also, the “MIC (μg/ml) BS” value in assay [2] is 167 µg/mL. Besides, in the assay on KMS-4 cells, the “Inhibition rate (%) (cell growth)” value is 10%. In addition, in assay [3], the “MIC (μg/ml) PV” value is 83 µg/mL. Further, the “MIC (μg/ml) PA” value in assay [4] is 167 µg/mL.

The values above are taken from patent US5677420A, “Phospholipase c-inhibiting peptides” (Kyowa Hakko Kogyo Co., Ltd., priority 1995, dated 1997).
